Like-named read-outs stand apart in the source and are kept apart here.
How the values were obtained:
[1] = Compound stability in rat liver microsomes; format: in vitro ADME; conditions: for stability / metabolism in rat liver microsomes (in words): incubated in rat liver microsomes; for half-life at 5 μM / CLint scaled at 5 μM: pH 7.4, rat liver microsomes; for half-life at 5 μM: 0.5 mg protein/mL, compound 5 μM, NADPH 1.0 mM, 37° C.; for CLint scaled at 5 μM: in vivo CLint extrapolated
Method: Human or rat liver microsomes incubations were conducted in duplicate in polypropylene tubes. The typical incubation mixtures consisted of human or rat liver microsomes (0.5 mg protein/mL), compounds of interest (5 μM) and NADPH (1.0 mM) in a total volume of 200 μL, potassium phosphate buffer (PBS, 100 mM, pH 7.4). Compounds were dissolved in DMSO and diluted with PBS such that the final concentration of DMSO was 0.05%. The enzymatic reactions were commenced with the addition of protein after a 3-min preincubation and incubated in a water bath open to the air at 37° C. Reactions were terminated at various time points (0, 5, 10, 15, 30, 60 min) by adding equal volume of ice-cold acetonitrile. The samples were stored at −80° C. until LC/MS/MS assays.
The concentrations of compounds in the incubation mixtures of human or rat liver microsomes were determined by a LC/MS/MS method. The ranges of the linearity in the concentration range were determined for each tested compounds.
A parallel incubation was performed using denatured microsomes as the negative control, and reactions were terminated at various time points (0, 15, 60 min) after incubation at 37° C.
Dextromethorphan (70 μM) was selected as the positive control, and reactions were terminated at various time points (0, 5, 10, 15, 30, 60 min) after incubation at 37° C. Both positive and negative control samples were included in each assay to ensure the integrity of the microsomal incubation system.
The concentrations of compounds in human or rat liver microsome incubations were plotted as a percentage of the relevant zero time point control for each reaction. The in vivo CLint were extrapolated (ref: Naritomi Y, Terashita S, Kimura S, Suzuki A, Kagayama A, Sugiyama Y. Prediction of human hepatic clearance from in vivo animal experiments and in vitro metabolic studies with liver microsomes from animals and humans. Drug Metabolism and Disposition 2001, 29: 1316-1324.)

[2] = Pharmacokinetics after intravenous and oral administration in rats; format: in vivo, rat; conditions: for Cl/F / AUC(0-t) / half-life / Vd: iv dosing; for F: oral bioavailability; for AUC(0-t) / half-life / Vd: rat, plasma; for Vd: read-out: Vss
Method: The compounds disclosed herein are assessed in pharmacokinetic studies in mice, rats, dogs or monkeys. The compounds are administered as a water solution, 2% HPMC+1% TWEEN®80 in water solution, 5% DMSO+5% solutol in saline, 4% MC suspension or capsule. For the intravenous administration, the animals are generally given at 1 or 2 mg/kg dose. For the oral (p.o.) dosing, mice and rats are generally given 5 or 10 mg/kg dose, and dogs and monkeys are generally given 10 mg/kg dose. The blood samples (0.3 mL) are drawn at 0.25, 0.5, 1.0, 2.0, 3.0, 4.0, 6.0, 8.0, 12 and 24 h time points or 0.083, 0.25, 0.5, 1.0, 2.0, 4.0, 6.0, 8.0 and 24 h time points and centrifuged at 3,000 or 4000 rpm for 2 to 10 min. The plasma solutions are collected, stored at −20° C. or -70° C. until analyzed by LC/MS/MS as described above.

[3] = target: KDR (h) (Homo sapiens (Human), UniProt P35968); test: KINOMEscan competition binding assay, KDR (h)
[4] = target: c-Met (h) (Homo sapiens (Human), UniProt P08581); test: KINOMEscan competition binding assay, c-Met (h)
[5] = test system: U87MG glioblastoma cells; test: U87MG tumor xenograft model, tumor growth inhibition; format: in vivo; conditions: nude mice, oral gavage once a day, 12 days
Method: The efficacy of compounds disclosed herein was evaluated in a standard murine model of tumorigenesis. Human tumor cells (U87MG glioblastoma cells from ATCC) were expended in culture, harvested, and injected subcutaneously onto the rear flank of 6-7 week old female athymic nude mice (BALB/cA nu/nu, Hunan SLAC Laboratory Animal, Co.) (n=6-10 for vehicle group and for each dosing group). When tumors reached a volume of 100-250 mm^3, animals were randomly divided into vehicle control (for example, 5% DMSO+70% Captisol® (30%), 7% HCl (pH1), 18% Captisol® (30%); or 7% DMSO, 7% HCl (pH1), 70% Captisol® (30%), 16% Captisol® (30%), or the like) and compound groups. Subsequent administration of compound by oral gavage begins anywhere from day 0 to day 15 post tumor cell challenge and generally continues with once a day for the duration of the experiment.
Progression of tumor growth is assessed by tumor volumes and recorded as a function of time. The long (L) and short (W) axes of the subcutaneous tumors were measured with calipers twice weekly, and the tumor volume (TV) calculated as (L×W^2)/2). TGI was calculated from the difference between the median tumor volumes of vehicle-treated and drug-treated mice, expressed as a percentage of the median tumor volume of the vehicle-treated control group, by the following relation:
[formula] Initial statistical analysis is done by repeated measures analysis of variance (RMANOVA), followed by Scheffe psot hoc testing for multiple comparisons. Vehicle alone (5% DMSO+70% Captisol® (30%), 7% HCl (pH1), 18% Captisol® (30%); or 7% DMSO, 7% HCl (pH1), 70% Captisol® (30%), 16% Captisol® (30%), or the like) is the negative control.

Chain of c-Met (h) (P08581 25-1390): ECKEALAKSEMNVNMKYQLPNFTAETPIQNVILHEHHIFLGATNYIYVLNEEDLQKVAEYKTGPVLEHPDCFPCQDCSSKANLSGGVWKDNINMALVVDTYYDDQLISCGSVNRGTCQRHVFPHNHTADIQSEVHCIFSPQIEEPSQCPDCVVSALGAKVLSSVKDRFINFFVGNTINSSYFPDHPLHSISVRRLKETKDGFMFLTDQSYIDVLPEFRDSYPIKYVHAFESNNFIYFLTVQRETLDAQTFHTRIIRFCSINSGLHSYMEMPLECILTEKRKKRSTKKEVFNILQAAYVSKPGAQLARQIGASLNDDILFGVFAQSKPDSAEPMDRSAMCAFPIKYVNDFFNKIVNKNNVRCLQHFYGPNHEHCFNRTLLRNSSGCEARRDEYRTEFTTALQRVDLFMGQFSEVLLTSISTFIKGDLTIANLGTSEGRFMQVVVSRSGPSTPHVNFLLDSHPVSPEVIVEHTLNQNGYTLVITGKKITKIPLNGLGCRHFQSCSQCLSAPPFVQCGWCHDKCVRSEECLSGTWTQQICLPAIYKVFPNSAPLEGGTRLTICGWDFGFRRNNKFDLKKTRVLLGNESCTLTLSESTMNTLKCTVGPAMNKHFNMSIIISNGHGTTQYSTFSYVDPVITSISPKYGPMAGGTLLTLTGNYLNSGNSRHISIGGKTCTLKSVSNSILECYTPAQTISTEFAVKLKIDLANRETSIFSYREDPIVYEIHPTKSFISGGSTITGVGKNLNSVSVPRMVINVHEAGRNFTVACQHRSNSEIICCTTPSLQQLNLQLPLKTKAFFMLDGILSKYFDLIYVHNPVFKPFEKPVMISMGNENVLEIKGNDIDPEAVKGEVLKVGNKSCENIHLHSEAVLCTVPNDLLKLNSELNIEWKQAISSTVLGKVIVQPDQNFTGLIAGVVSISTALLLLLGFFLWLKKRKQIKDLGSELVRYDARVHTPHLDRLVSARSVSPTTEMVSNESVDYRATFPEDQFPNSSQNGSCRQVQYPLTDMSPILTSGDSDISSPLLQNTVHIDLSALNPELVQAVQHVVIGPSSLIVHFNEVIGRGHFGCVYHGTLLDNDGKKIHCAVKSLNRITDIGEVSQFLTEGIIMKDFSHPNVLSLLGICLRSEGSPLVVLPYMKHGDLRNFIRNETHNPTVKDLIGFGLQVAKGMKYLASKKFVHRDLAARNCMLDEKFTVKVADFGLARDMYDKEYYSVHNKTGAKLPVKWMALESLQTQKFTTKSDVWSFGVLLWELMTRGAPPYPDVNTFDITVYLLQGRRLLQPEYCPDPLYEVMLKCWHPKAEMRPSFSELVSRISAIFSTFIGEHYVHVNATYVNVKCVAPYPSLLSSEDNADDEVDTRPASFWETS
Chain of KDR (h) (P35968 20-1356): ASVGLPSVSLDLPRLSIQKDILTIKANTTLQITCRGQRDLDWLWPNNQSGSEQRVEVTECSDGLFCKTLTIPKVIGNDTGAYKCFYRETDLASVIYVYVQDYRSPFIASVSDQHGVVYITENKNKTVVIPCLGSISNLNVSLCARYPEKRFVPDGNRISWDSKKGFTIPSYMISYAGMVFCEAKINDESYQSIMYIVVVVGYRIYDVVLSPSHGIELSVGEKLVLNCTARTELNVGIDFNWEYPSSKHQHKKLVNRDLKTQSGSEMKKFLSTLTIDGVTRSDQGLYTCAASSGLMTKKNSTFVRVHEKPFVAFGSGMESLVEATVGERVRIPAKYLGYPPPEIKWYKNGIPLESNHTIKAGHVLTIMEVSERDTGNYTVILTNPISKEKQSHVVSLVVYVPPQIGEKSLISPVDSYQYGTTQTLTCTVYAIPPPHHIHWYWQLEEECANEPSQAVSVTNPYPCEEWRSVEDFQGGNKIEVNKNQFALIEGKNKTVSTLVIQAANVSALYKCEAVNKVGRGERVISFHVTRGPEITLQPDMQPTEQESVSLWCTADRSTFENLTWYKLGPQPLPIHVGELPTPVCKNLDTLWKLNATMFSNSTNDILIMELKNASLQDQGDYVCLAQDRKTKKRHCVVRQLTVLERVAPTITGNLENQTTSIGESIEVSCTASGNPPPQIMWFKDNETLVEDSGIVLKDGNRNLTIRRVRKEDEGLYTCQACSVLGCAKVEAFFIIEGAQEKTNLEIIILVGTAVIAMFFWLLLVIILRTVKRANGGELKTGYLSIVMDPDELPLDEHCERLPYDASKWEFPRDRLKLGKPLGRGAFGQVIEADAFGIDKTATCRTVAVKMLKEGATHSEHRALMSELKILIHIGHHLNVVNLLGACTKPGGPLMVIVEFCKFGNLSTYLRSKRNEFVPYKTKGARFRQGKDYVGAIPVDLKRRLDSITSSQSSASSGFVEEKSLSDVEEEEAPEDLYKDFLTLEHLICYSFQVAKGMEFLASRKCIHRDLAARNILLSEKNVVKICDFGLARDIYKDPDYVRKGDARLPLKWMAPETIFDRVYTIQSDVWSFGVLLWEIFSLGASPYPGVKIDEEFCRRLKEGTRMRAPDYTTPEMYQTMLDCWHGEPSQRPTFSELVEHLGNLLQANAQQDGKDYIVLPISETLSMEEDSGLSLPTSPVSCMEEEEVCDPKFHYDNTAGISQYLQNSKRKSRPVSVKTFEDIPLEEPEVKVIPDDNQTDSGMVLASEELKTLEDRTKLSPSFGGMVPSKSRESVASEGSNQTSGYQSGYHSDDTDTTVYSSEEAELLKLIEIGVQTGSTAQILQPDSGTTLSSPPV

Structure (SMILES)	stability / metabolism in rat liver microsomes (in words) [1]	half-life at 5 μM [1] [h]	CLint scaled at 5 μM [1] [mL/min/kg]	Cl/F ([2]; dose 2 mg/kg) [mL/min/kg]	F ([2]; iv dose 2 mg/kg) [%]	AUC(0-t) ([2]; dose 2 mg/kg) [ng·h/mL]	half-life ([2]; dose 2 mg/kg) [h]	Vd ([2]; dose 2 mg/kg) [L/kg]	Kd [3] [nM]	Kd [4] [nM]	TGI% (on last day of dosing) ([5]; 6 mg/kg) [%]	TGI% (on last day of dosing) ([5]; 30 mg/kg) [%]	Cl/F ([2]; dose 1 mg/kg) [mL/min/kg]	F ([2]; iv dose 1 mg/kg) [%]	AUC(0-t) ([2]; dose 1 mg/kg) [ng·h/mL]	half-life ([2]; dose 1 mg/kg) [h]	Vd ([2]; dose 1 mg/kg) [L/kg]
Cc1c(C(=O)Nc2ccc(Oc3ccnc(NC(=O)C4CC4)c3)cn2)c(=O)n(-c2ccccc2)n1C [Example 8, N-(5-((2-(cyclopropanecarboxamido)pyridin-4-yl)oxy)pyridin-2-yl)-1,5-dimethyl-3-oxo-2-phenyl-2,3-dihydro-1H-pyrazole-4-carboxamide]	little metabolized	11.7	3.53	0.83	85.88	38300	4.06	0.27	3.2	2.4	32	78					
Cc1c(C(=O)Nc2ccc(Oc3ccnc(C(N)=O)c3)c(F)c2)c(=O)n(-c2ccccc2)n1C [Example 10, 4-(4-(1,5-dimethyl-3-oxo-2-phenyl-2,3-dihydro-1H-pyrazole-4-carboxamido)-2-fluorophenoxy)picolinamide]									450	200							
Cc1c(C(=O)Nc2ccc(Oc3ccnc(NC(=O)C4CC4)c3)c(F)c2)c(=O)n(-c2ccccc2)n1C [Example 11, N-(4-((2-(cyclopropanecarboxamido)pyridin-4-yl)oxy)-3-fluorophenyl)-1,5-dimethyl-3-oxo-2-phenyl-2,3-dihydro-1H-pyrazole-4-carboxamide]	little metabolized	3.93	10.5						6.3	0.5	56	97	0.83	133.5	14000	4.61	0.34
Cc1c(C(=O)Nc2ccc(Oc3ccnc(NC(=O)C4CC4)c3)cc2)c(=O)n(-c2ccccc2)n1C [Example 16, N-(4-((2-(cyclopropanecarboxamido)pyridin-4-yl)oxy)phenyl)-1,5-dimethyl-3-oxo-2-phenyl-2,3-dihydro-1H-pyrazole-4-carboxamide]	little metabolized	7.06	5.86						2.9	0.21			0.67	94.49	23400	5.95	0.31

Reference: patent US8975282B2, “Substituted pyrazolone compounds and methods of use” (Calitor Sciences, LLC, priority 2012, dated 2015)
